These results are taken from patent publication US20250195604A1, “Compositions and Methods of Treatment of Certain Vasculitis Syndromes” (Soligenix, Inc., priority 2023, published 2025).

No end group written: not given here.

The subject of data set [1] is whole blood stimulated with LPS (E. coli). The experiment in a line: Phase 1 study: in vitro LPS stimulation of whole blood from SAD and MAD volunteers, cytokine and chemokine analytes. In kind it is in vivo, human. On the procedure:
Solid lines indicate the mean response, dashed lines the respective 95% CI for the population.
(§1) In a Phase 1 study, patients received single ascending doses (0.15 to 8.0 mg/kg) and multiple ascending doses (daily 7× 0.5 to 6.5 mg/kg) of dusquetide as 4-minutes IV infusions. To determine the pharmacodynamic profile of dusquetide, cytokine and chemokine analytes were quantified after 4 h of in vitro stimulation of whole blood with LPS (E. coli) to determine dusquetide effects on dose, gender and any extended impact on PD.
The following panel of cytokine and chemokine analytes were quantified: IL-la; IL-1B; IL-6; IL-1ra; TNFα; Tumor Necrosis Factor-Receptor II (TNF RII); MCP-1; Macrophage Inflammatory Protein-1alpha (MIP-la; also known as CCL3); MIP-1B (also known as CCL4) and RANTES (also known as CCL5). The dusquetide-treated population (N=56) in the combined SAD and MAD data set was subdivided into “low dose” (N=26, 0.15-2.0 mg/kg) and “high dose” (N=30; 3.0-8.0 mg/kg) groups and these were compared to the combined placebo group (N=22).

Data set [2] is described as follows: Phase 1 studies, safety of IV dusquetide. In kind it is in vivo, human. The conditions noted are these: dose levels of 0.15 to 8.0 mg/kg. On the procedure: The dosage form of dusquetide is an aqueous, aseptically processed, sterile solution for injection. Each vial contains 5 mL of a 60 mg/mL solution (300 mg of dusquetide). Dusquetide is formulated in water for injection and pH adjusted to a target value of 6.0. The preferred formulation of the present invention contains no excipients and has an osmolality of ˜300 mOsm/kg. Dusquetide drug product is diluted in sterile saline to the appropriate concentration for injection, determined on a mg/kg basis by the recipient's weight at a dose level of 1.5 mg/kg. Diluted dusquetide is administered as an intravenous (IV) infusion in 25 mL over 4 minutes, once every third day.
as §1

In data set [3] the test system is mouse macrophage-like cell line. The experiment in a line: Signalling after dusquetide exposure in mouse macrophage-like cell line. In kind it is cell-based.
The test system of data set [4] is mouse blood challenged with LPS. The experiment in a line: LPS challenge of mouse blood exposed to dusquetide in vitro. The format is cell-based. As to conditions: dusquetide exposure in vitro. An excerpt:
The innate immune system involves numerous cell types distributed throughout the body in both circulating and tissue-resident compartments. The interaction of all the cells defines the aggregate response. […] Nevertheless, cellular and molecular studies with individual cell types or sub-groups of cell types are informative but must be interpreted cautiously when used to predict the behavior of the system in vivo. […] By contrast, when dusquetide exposure of either mouse or human blood occurs in vitro, although the TNFα response to LPS challenge is unaffected, the MCP-1 response is reduced. The responses of mouse and human primary blood cells to dusquetide in this in vitro setting are quantitatively and qualitatively similar.

The subject of data set [5] is fractionated radiation-induced mucositis. The experiment in a line: Hamster model of fractionated radiation-induced mucositis. The format is in vivo. An excerpt:
Dusquetide has been extensively studied in animal models of both mucosal damage (where damage associated molecular patterns (DAMPS)) trigger the innate defense system) and bacterial infection (where pathogen associated molecular patterns (PAMPS)) trigger the innate defense system).

Data set [6] deals with nonhuman primate (NHP) primary cell cultures. As to conditions: North 2016; cited from earlier work.
Data set [7] has as its system mucositis (oral and lower GI tract). As to conditions: mice after chemotherapy, Kudrimoti 2016; cited from earlier work.
Data set [8] deals with response to lipopolysaccharide. As to conditions: North 2016, Yu 2009; cited from earlier work.
[9] abbreviates: low dose group (0.15-2.0 mg/kg).
Setting [10] is: low dose group (0.15-2.0 mg/kg), 1 h timepoint, vs placebo or high dose.
Where [11] appears, read: hamster, fractionated radiation.

Consider “RIVPA-NH2 [dusquetide, L-arginyl-L-isoleucyl-L-valyl-L-prolyl-L-alanine-amide]”, for which the “measured cytokine and chemokine analytes” value in data set [1] (high dose group (3.0-8.0 mg/kg)) was “very similar to the placebo group”. Also, in data set [1] (setting [9]), the “ratio IL-1ra/IL-1B” value is given as “more distinct increased responses” and the “ratio TNF RII/TNFα” value is on record as “more distinct increased responses”. Also, in data set [1] (setting [10]), the “IL-1B after LPS stimulation of whole blood” value is given as “slightly decreased”, the “IL-1ra after LPS stimulation of whole blood” value is “slightly increased”, the “IL-1x after LPS stimulation of whole blood” value was “slightly decreased” and the “TNFα after LPS stimulation of whole blood” value is listed as “slightly decreased”. The safety of administration result in data set [2] was “safely administered”. Also, in data set [3], the C/EBPB activation result was “transient activation” and the “p38 MAP kinase activation” value is “transient activation”. In addition, in data set [4], the “MCP-1 response to LPS challenge” value is on record as “reduced” and the “TNFα response to LPS challenge” value is “unaffected”. Moreover, the efficacy by regimen result in data set [5] (every 2nd or 3rd day at 25 mg/kg) is “effective”. Also, in data set [5] (setting [11]), the “duration of SOM” value was “decrease” and the “intensity of SOM” value is “decrease”. Further, in data set [6], the “expression patterns of chemokines such as MCP-1” value is listed as “modulated”. Further, in data set [7], the duration of mucositis entry was “decreased” and the intensity of mucositis entry is given as “decreased”. Further, in data set [8], the “ILIra relative to IL-1B” value was “increasing” and the “TNFRII relative to TNFα” value was “increasing”.
